Measured values published in ChEMBL document CHEMBL4184135, “Waspergillamide A, a Nitro depsi-Tetrapeptide Diketopiperazine from an Australian Mud Dauber Wasp-Associated Aspergillus sp. (CMB-W031)” (J Nat Prod, 2017).
Calls of active or inactive are those of the source.

Experiments:
[1] = tested on: Staphylococcus aureus; assay: Antimicrobial activity against Staphylococcus aureus ATCC 25923 assessed as inhibition of microbial growth at 0.125 to 32 ug/mL incubated for 24 hrs by broth micro-dilution method; assay type: functional, organism-based
[2] = tested on: Pseudomonas aeruginosa; assay: Antimicrobial activity against Pseudomonas aeruginosa ATCC 27853 assessed as inhibition of microbial growth at 0.125 to 32 ug/mL incubated for 24 hrs by broth micro-dilution method; assay type: functional, organism-based
[3] = tested on: NCI-H460; assay: Cytotoxicity against human NCI-H460 cells assessed as inhibition of cell growth at 10 nM to 30 uM incubated for 72 hrs by MTT assay; assay type: functional, cell-based
[4] = tested on: Escherichia coli; assay: Antimicrobial activity against Escherichia coli ATCC 25922 assessed as inhibition of microbial growth at 0.125 to 32 ug/mL incubated for 24 hrs by broth micro-dilution method; assay type: functional, organism-based
[5] = tested on: SW-620; assay: Cytotoxicity against human SW620 cells assessed as inhibition of cell growth at 10 nM to 30 uM incubated for 72 hrs by MTT assay; assay type: functional, cell-based
[6] = tested on: KB 3-1; assay: Cytotoxicity against human KB-3-1 cells assessed as inhibition of cell growth at 10 nM to 30 uM incubated for 72 hrs by MTT assay; assay type: functional, cell-based

Measured: growth inhibition (GI)

CC(C)/C=C1\NC(=O)[C@@H](C(C)(C)OC(=O)CNC(=O)c2ccc([N+](=O)[O-])cc2)NC1=O
inactive: all assays above
